Paper PMC12622451, “NADPH Oxidase Inhibition Promotes Brain Resilience by Attenuating Tauopathy and Neuroinflammation in Alzheimer's Disease” (Advanced Science, 2025)

Tests used:
human Nox4 [1] = biological target: T1, human Nox4 (Homo sapiens, UniProt Q9NPH5); test: ROS chemiluminescence with Drosophila membranes expressing human Nox4; format: biochemical
T1 sequence (Q9NPH5 1-578): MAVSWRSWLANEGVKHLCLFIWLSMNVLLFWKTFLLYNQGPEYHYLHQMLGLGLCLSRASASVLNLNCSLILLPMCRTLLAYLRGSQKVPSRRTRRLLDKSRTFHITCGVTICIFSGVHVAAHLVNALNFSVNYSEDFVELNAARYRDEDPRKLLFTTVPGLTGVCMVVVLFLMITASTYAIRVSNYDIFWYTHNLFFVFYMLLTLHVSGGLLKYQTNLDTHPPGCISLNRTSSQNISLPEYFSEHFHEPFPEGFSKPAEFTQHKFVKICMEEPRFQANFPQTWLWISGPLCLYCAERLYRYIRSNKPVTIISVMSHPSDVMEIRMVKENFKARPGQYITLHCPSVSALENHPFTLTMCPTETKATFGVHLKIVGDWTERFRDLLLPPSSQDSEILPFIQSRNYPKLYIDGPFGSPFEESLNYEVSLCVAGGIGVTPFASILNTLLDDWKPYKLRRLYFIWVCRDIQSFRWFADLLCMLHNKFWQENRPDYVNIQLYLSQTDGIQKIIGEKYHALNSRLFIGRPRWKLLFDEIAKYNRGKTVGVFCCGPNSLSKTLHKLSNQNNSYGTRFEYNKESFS

human Duox2 = human Duox2 (Homo sapiens, UniProt Q9NRD8); test: ROS chemiluminescence with Drosophila membranes expressing human Duox2; format: biochemical
human Duox1 = human Duox1 (Homo sapiens, UniProt Q9NRD9); test: ROS chemiluminescence with Drosophila membranes expressing human Duox1; format: biochemical
human Nox1 [2] = biological target: T2, human Nox1 (Homo sapiens, UniProt Q9Y5S8); test: ROS chemiluminescence with Drosophila membranes expressing human Nox1; format: biochemical
T2 sequence (Q9Y5S8 1-564): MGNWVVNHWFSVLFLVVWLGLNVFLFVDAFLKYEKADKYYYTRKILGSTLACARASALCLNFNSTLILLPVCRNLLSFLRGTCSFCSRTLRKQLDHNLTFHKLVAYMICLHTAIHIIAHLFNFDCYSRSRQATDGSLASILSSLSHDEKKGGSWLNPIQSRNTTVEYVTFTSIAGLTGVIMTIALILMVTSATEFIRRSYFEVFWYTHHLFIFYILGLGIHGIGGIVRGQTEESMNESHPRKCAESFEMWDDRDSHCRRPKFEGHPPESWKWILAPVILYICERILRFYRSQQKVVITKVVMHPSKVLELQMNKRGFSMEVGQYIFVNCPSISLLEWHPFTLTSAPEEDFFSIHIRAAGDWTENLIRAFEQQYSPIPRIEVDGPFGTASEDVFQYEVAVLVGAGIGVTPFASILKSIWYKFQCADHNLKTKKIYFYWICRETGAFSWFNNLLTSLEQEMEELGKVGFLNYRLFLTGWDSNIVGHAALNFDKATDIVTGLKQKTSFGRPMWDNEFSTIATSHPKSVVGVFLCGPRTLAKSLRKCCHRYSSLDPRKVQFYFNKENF

human Nox2 [3] = biological target: T3, human Nox2 (Homo sapiens, UniProt P04839); test: ROS chemiluminescence with Drosophila membranes expressing human Nox2; format: biochemical
T3 construct: gene CYBB
T3 sequence (P04839 2-570): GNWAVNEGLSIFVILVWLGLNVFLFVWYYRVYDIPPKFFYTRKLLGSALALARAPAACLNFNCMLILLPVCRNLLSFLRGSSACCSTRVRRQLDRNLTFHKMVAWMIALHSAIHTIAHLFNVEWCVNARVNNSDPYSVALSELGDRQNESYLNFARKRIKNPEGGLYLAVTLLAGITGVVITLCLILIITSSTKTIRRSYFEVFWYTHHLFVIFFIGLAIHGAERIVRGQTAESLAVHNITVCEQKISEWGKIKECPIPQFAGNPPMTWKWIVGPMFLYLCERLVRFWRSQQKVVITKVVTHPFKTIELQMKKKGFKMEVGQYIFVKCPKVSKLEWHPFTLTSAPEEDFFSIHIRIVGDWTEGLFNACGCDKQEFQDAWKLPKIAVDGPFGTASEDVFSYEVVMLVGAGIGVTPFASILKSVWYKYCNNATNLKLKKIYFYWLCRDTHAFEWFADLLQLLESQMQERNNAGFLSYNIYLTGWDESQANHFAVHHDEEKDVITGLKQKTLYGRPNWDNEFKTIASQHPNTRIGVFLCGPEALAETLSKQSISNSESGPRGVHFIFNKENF

human Nox5 = biological target: T4, human Nox5 (Homo sapiens, UniProt Q96PH1); test: ROS chemiluminescence with Drosophila membranes expressing human Nox5; format: biochemical
T4 sequence (Q96PH1 1-765): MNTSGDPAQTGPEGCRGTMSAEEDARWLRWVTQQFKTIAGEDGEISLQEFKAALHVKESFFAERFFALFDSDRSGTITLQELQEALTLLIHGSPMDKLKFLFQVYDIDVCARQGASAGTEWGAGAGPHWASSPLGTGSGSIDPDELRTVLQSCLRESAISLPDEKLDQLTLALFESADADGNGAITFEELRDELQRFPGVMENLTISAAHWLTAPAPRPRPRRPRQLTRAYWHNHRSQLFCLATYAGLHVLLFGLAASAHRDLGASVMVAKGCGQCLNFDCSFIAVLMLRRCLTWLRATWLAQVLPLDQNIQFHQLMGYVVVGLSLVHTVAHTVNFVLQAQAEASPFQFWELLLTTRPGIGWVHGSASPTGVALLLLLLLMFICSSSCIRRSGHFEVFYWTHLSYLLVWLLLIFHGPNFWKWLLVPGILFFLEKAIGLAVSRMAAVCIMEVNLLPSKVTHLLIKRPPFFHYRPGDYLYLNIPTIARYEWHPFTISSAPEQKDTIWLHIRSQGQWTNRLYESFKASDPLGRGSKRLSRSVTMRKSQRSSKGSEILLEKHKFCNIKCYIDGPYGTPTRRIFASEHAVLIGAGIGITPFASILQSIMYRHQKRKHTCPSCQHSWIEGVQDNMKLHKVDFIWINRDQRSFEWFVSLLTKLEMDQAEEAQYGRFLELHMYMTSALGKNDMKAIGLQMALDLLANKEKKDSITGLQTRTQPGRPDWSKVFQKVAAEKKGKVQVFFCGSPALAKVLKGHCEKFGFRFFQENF

human Nox4 [4] = biological target: T1, human Nox4; test: lucigenin chemiluminescence with Drosophila membranes expressing human Nox4; format: cell-based
human Nox2 [5] = biological target: T3, human Nox2; test: lucigenin chemiluminescence with Drosophila membranes expressing human Nox2; format: cell-based
human Nox1 [6] = biological target: T2, human Nox1

human Duox2, sequence (Q9NRD8 26-1548): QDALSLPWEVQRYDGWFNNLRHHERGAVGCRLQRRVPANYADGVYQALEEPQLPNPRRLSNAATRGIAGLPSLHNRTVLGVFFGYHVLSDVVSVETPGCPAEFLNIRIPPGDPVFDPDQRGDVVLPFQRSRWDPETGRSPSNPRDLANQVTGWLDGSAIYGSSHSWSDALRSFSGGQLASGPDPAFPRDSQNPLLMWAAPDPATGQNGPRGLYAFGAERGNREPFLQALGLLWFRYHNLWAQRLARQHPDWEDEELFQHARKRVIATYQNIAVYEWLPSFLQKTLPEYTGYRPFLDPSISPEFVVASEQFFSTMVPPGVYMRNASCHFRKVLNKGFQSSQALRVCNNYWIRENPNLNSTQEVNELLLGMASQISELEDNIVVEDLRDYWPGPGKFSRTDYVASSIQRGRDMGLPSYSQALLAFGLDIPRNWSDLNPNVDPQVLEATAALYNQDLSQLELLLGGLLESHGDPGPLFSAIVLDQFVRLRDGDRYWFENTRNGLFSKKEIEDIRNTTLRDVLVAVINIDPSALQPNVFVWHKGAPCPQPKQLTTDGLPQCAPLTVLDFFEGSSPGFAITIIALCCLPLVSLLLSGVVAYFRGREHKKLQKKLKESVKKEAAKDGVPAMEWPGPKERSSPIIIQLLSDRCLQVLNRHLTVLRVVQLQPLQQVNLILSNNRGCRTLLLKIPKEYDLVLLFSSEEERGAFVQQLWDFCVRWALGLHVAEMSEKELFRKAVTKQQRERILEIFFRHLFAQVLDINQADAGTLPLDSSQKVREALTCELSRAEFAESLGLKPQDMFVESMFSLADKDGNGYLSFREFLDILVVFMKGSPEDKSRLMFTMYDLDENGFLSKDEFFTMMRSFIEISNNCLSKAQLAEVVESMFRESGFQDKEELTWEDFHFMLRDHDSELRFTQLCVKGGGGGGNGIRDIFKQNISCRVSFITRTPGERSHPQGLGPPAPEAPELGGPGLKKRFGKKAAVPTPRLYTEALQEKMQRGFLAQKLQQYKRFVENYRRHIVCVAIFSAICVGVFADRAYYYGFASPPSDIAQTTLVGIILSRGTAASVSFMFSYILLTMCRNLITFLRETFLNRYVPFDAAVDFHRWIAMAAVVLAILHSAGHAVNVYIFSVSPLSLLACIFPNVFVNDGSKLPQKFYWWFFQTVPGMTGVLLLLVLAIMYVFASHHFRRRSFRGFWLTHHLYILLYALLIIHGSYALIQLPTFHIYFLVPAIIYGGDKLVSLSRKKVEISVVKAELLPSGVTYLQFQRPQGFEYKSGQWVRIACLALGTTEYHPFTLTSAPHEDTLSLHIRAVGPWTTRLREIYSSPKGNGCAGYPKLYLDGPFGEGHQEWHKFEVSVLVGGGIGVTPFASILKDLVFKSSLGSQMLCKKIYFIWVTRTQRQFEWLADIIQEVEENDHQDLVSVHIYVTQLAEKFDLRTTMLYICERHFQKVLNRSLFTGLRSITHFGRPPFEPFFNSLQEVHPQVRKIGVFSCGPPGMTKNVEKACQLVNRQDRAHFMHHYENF
human Duox1, sequence (Q9NRD9 22-1551): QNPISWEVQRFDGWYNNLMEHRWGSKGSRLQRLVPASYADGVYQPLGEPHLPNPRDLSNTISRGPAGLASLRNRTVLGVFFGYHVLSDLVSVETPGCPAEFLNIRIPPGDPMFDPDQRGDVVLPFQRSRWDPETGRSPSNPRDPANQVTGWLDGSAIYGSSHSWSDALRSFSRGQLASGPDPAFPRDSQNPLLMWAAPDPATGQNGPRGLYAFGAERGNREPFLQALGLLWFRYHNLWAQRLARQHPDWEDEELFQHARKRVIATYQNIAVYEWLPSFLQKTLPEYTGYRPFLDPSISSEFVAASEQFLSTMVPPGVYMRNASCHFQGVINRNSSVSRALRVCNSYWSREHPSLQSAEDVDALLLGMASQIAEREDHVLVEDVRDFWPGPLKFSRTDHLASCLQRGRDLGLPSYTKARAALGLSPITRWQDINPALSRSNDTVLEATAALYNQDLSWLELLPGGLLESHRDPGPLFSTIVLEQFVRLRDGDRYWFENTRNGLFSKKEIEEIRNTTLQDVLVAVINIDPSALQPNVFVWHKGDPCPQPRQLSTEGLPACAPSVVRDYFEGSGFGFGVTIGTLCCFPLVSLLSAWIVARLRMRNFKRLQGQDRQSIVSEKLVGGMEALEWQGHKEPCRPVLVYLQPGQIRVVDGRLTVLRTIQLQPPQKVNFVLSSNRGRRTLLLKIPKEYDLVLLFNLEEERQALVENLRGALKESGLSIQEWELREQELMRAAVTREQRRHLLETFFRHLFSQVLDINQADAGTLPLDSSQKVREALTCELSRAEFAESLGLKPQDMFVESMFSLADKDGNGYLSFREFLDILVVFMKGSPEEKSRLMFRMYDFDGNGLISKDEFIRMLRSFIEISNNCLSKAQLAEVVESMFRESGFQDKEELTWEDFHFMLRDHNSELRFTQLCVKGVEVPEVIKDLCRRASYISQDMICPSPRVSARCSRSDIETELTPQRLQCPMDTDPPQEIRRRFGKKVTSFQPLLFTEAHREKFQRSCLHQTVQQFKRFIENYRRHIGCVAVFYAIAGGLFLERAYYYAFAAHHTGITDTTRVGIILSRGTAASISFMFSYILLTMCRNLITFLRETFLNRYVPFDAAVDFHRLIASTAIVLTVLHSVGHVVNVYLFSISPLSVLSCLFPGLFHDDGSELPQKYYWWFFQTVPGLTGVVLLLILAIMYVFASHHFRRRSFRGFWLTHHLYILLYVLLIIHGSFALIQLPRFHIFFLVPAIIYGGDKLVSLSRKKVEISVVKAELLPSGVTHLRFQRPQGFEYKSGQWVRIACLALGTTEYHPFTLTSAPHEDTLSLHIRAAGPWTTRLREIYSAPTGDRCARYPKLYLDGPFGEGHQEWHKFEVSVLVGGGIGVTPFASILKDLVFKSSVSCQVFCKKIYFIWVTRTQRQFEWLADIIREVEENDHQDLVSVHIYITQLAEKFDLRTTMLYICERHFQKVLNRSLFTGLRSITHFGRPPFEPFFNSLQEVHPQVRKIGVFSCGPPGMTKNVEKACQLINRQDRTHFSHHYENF

| SMILES | IC50 (human Nox4 [1]) | IC50 (human Duox2) | IC50 (human Duox1) | IC50 (human Nox1 [2]) | IC50 (human Nox2 [3]) | IC50 (human Nox5) | lucigenin chemiluminescence with Drosophila membranes expressing human Nox4 (human Nox4 [4]) | lucigenin chemiluminescence with Drosophila membranes expressing human Nox2 (human Nox2 [5]) | lucigenin chemiluminescence with Drosophila membranes expressing human Nox1 (human Nox1 [6]) |
| --- | --- | --- | --- | --- | --- | --- | --- | --- | --- |
| O=C(Nc1nnc(-c2ccccc2)o1)c1ccc(F)c(C(F)(F)F)c1 [CRB-2131, 4‐fluoro‐N‐(5‐phenyl‐1,3,4‐oxadiazol‐2‐yl)‐3‐(trifluoromethyl) benzamide] | 200 to 300 nM | 200 to 300 nM | 200 to 300 nM | 200 to 300 nM | 200 to 300 nM | 200 to 300 nM |  |  |  |
| c1ccc2c(c1)[I+]c1ccccc1-2 [DPI, Diphenyleneiodonium chloride] |  |  |  |  |  |  | DPI exhibited low Nox inhibitory activity, while GSK2795039 showed very minimal inhibition | DPI exhibited low Nox inhibitory activity, while GSK2795039 showed very minimal inhibition | DPI exhibited low Nox inhibitory activity, while GSK2795039 showed very minimal inhibition |
